Assay results published in patent US8293774B2, “Optically active (R)-aryloxypropionic acid amides and herbicidal composition comprising same” (Kyung Nong Corporation, priority 2007, dated 2012).

What was measured:
[1] = test system: SETVIR (Setaria viridis (L.) Beauv, green foxtail); assay: Weed control test, foliage treatment (Test Example 1, Table 7); assay type: in vivo; details: Setaria viridis, foliar, read-out: Plant damage (herbicidal activity), visually evaluated, SETVIR; for pest or weed control at 25 g/ha: 0.025 kg/ha; for pest or weed control at 100 g/ha: 0.1 kg/ha; for pest or weed control at 200 g/ha: 0.2 kg/ha
Method in brief: (§1)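 Each compound was mixed with acetone and emulsifier (1:5:1 by weight), diluted in water, and sprayed over the foliage at 2,000 l/ha, timed to the 3-leaf stage of barnyard grass. Growth conditions were sandy loam in a greenhouse at 20 to 30° C. Damage ratings of 1 to 100% against untreated plants followed at days 10 and 20.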

[2] = test system: PANDI (Panium dichotomiflorum Michx, fall panicum); assay: as above; assay type: in vivo; details: Panicum dichotomiflorum, foliar, read-out: Plant damage (herbicidal activity), visually evaluated, PANDI; for pest or weed control at 25 g/ha: 0.025 kg/ha; for pest or weed control at 100 g/ha: 0.1 kg/ha; for pest or weed control at 200 g/ha: 0.2 kg/ha
Method in brief: as §1

[3] = test system: SORBI (Andropogon sorghum, common sorgum); assay: as above; assay type: in vivo; details: Sorghum bicolor, foliar, read-out: Plant damage (herbicidal activity), visually evaluated, SORBI; for pest or weed control at 25 g/ha: 0.025 kg/ha; for pest or weed control at 100 g/ha: 0.1 kg/ha; for pest or weed control at 200 g/ha: 0.2 kg/ha
Method in brief: as §1

[4] = test system: ARTHIS (Arthraxon hispidus (Thunb.) Makino, creek grass); assay: as above; assay type: in vivo; details: Arthraxon hispidus, foliar, read-out: Plant damage (herbicidal activity), visually evaluated, ARTHIS; for pest or weed control at 25 g/ha: 0.025 kg/ha; for pest or weed control at 100 g/ha: 0.1 kg/ha; for pest or weed control at 200 g/ha: 0.2 kg/ha
Method in brief: as §1

[5] = test system: ZEAMX (Zea mays L., corn); assay: as above; assay type: in vivo; details: Zea mays, foliar, read-out: Plant damage (herbicidal activity), visually evaluated, ZEAMX; for plant injury at 25 g/ha: 0.025 kg/ha; for plant injury at 100 g/ha: 0.1 kg/ha; for plant injury at 200 g/ha: 0.2 kg/ha
Method in brief: as §1

[6] = test system: ECHOG (Echinoch crus-galli Beauv. var. caudata Kitagawa, barnyard grass); assay: as above; assay type: in vivo; details: Echinochloa crus-galli, foliar, 3-leaf stage, read-out: Plant damage (herbicidal activity), visually evaluated, ECHOG; for pest or weed control at 25 g/ha: 0.025 kg/ha; for pest or weed control at 100 g/ha: 0.1 kg/ha; for pest or weed control at 200 g/ha: 0.2 kg/ha
Method in brief: as §1

[7] = test system: DIGSA (Digitaria Sanguinalis (L.) SCOP, large crabgrass); assay: as above; assay type: in vivo; details: Digitaria sanguinalis, foliar, read-out: Plant damage (herbicidal activity), visually evaluated, DIGSA; for pest or weed control at 25 g/ha: 0.025 kg/ha; for pest or weed control at 100 g/ha: 0.1 kg/ha; for pest or weed control at 200 g/ha: 0.2 kg/ha
Method in brief: as §1

[8] = test system: Echinochloa crus-galli var. crus-galli; assay: Foliage treatment with emulsions, dry rice field conditions (Test Example 2, Table 9); assay type: in vivo; details: 150 g a.i./ha; emulsion of Formulation Example 3; division stage 1~2; 20 days after foliage treatment
Description: (§2) Seeds of rice (Nampyung rice) and barnyard grasses (Echinochloa oryzicola and Echinochloa crus-galli var. crus-galli) were placed in sandy loam of pots, covered with soil, and grown in the dry rice field conditions.
(§3) Rice (6˜6.5-leaf stage, plant height 33.2 cm) and barnyard grasses (Echinochloa oryzicola: division stage 1˜2, plant height 38.0 cm, Echinochloa crus-galli var. crus-galli: division stage 1˜2, plant height 44.1 cm) were subjected to a foliage treatment with emulsions prepared according to Formulation Example 3 by using compounds of Examples 1, 5 and 13 (purity: 99% or more), wherein the emulsions were sprayed to the plants at a dosage of the active compound of 150 g/ha.
(§4) The herbicidal effect on the barnyard grasses and harmful effect on the rice of the test compounds at 20 days and 30 days after the foliage treatment were visually evaluated as in Test Example 1 in comparison with the untreated control, and the results are shown in Table 9.

[9] = test system: Echinochloa oryzicola; assay: as above; assay type: in vivo; details: 150 g a.i./ha; emulsion of Formulation Example 3; division stage 1~2; 20 days after foliage treatment
Description: as §2, §3, §4

[10] = test system: GLXMA (Glycine max(L.) MERR, soy bean); assay: Weed control test, foliage treatment (Test Example 1, Table 7); details: in vivo
[11] = test system: TRZAW (Tritium aestivum L., wheat); assay: as above; details: in vivo
[12] = test system: rice (Nampyung rice); assay: Foliage treatment with emulsions, dry rice field conditions, harmful effect on rice (Test Example 2, Table 9); assay type: in vivo; details: 6~6.5-leaf stage, 150 g a.i./ha, emulsion; for Harmful effect, 20 days: 20 days after foliage treatment; for Harmful effect, 30 days: 30 days after foliage treatment
Description: as §2

[13] = test system: Rice; assay: Weed control test, 4-leaf stage plants (Test Example 1, Table 8); details: in vivo
Method: (§5) Seeds of rice, wheat, soy bean, barley, corn, common sorgum, barnyard grass, large crabgrass, creek grass, green foxtail and fall panicum were placed in sandy loam in 600 cm^2 pots and covered with soil. After keeping the pots in a greenhouse at 20 to 30° C. allowing growth of the plants to the 3-leaf stage of the barnyard grass, 2,000 l/ha of an emulsion obtained by diluting with water a mixture of 1 part by weight of a test compound, 5 parts by weight of acetone and 1 part by weight of an emulsifying agent (Tween 80, Junsei) was applied to the surface of the foliage of the plants. The plant damage at 10 days and 20 days after the foliage treatment was visually evaluated from the level of 1 to 100% by comparison with the untreated control: […]

[14] = test system: Barnyard grass; assay: as above; assay type: in vivo, Echinoch crus-galli Beauv. var. caudata Kitagawa
Description: as §5, with “[…],” for “After keeping the pots in a greenhouse at 20 to 30° C. allowing growth of the plants to the 3-leaf stage of the barnyard grass,”

C[C@@H](Oc1ccc(Oc2nc3ccc(Cl)cc3o2)cc1)C(=O)Nc1nc2ccccc2s1 [Example 5, (R)-2-[4-(6-chloro-2-benzoxazolyloxy)phenoxy]propionic acid-N-(2-benzothiazolyl)amide]
pest or weed control at 25 g/ha [1]: 80% | pest or weed control at 100 g/ha [1]: 100% | pest or weed control at 200 g/ha [1]: 100% | pest or weed control at 25 g/ha [2]: 90% | pest or weed control at 100 g/ha [2]: 100% | pest or weed control at 200 g/ha [2]: 100% | pest or weed control at 25 g/ha [3]: 25% | pest or weed control at 100 g/ha [3]: 100% | pest or weed control at 200 g/ha [3]: 100% | pest or weed control at 25 g/ha [4]: 40% | pest or weed control at 100 g/ha [4]: 100% | pest or weed control at 200 g/ha [4]: 100% | plant injury at 25 g/ha [5]: 60% | plant injury at 100 g/ha [5]: 100% | plant injury at 200 g/ha [5]: 100% | pest or weed control at 25 g/ha [6]: 95% | pest or weed control at 100 g/ha [6]: 100% | pest or weed control at 200 g/ha [6]: 100% | pest or weed control at 25 g/ha [7]: 95% | pest or weed control at 100 g/ha [7]: 100% | pest or weed control at 200 g/ha [7]: 100% | Herbicidal effect (0~100), 20 days, Echinochloa crus-galli var. crus-galli [8]: 100% | Herbicidal effect (0~100), 20 days, Echinochloa oryzicola [9]: 100% | Plant damage (herbicidal activity), visually evaluated, GLXMA [10]: 0% | Plant damage (herbicidal activity), visually evaluated, TRZAW [11]: 0% | Harmful effect, 20 days [12]: 0% | Harmful effect, 30 days [12]: 0% | Plant damage (herbicidal activity), visually evaluated, Rice [13]: 0% | Plant damage (herbicidal activity), visually evaluated, Barnyard grass ([14]; 0.025 kg/ha): 70% | Plant damage (herbicidal activity), visually evaluated, Barnyard grass ([14]; 0.05 kg/ha): 95% | Plant damage (herbicidal activity), visually evaluated, Barnyard grass ([14]; 0.1 kg/ha): 100% | Plant damage (herbicidal activity), visually evaluated, Barnyard grass ([14]; 0.4 kg/ha): 100%

COc1ccc2nc(NC(=O)[C@@H](C)Oc3ccc(Oc4nc5ccc(Cl)cc5o4)cc3)sc2c1 [Example 13, (R)-2-[4-(6-chloro-2-benzoxazolyloxy)phenoxy]propionic acid-N-(6-methoxy-2-benzothiazolyl)amide]
pest or weed control at 25 g/ha [1]: 50% | pest or weed control at 100 g/ha [1]: 100% | pest or weed control at 200 g/ha [1]: 100% | pest or weed control at 25 g/ha [2]: 20% | pest or weed control at 100 g/ha [2]: 100% | pest or weed control at 200 g/ha [2]: 100% | pest or weed control at 25 g/ha [3]: 30% | pest or weed control at 100 g/ha [3]: 100% | pest or weed control at 200 g/ha [3]: 100% | pest or weed control at 25 g/ha [4]: 50% | pest or weed control at 100 g/ha [4]: 100% | pest or weed control at 200 g/ha [4]: 100% | plant injury at 25 g/ha [5]: 40% | plant injury at 100 g/ha [5]: 100% | plant injury at 200 g/ha [5]: 100% | pest or weed control at 25 g/ha [6]: 70% | pest or weed control at 100 g/ha [6]: 100% | pest or weed control at 200 g/ha [6]: 100% | pest or weed control at 25 g/ha [7]: 75% | pest or weed control at 100 g/ha [7]: 100% | pest or weed control at 200 g/ha [7]: 100% | Herbicidal effect (0~100), 20 days, Echinochloa crus-galli var. crus-galli [8]: 80% | Herbicidal effect (0~100), 20 days, Echinochloa oryzicola [9]: 70% | Plant damage (herbicidal activity), visually evaluated, GLXMA [10]: 0% | Plant damage (herbicidal activity), visually evaluated, TRZAW [11]: 0% | Harmful effect, 20 days [12]: 10% | Harmful effect, 30 days [12]: 0% | Plant damage (herbicidal activity), visually evaluated, Barnyard grass ([14]; 0.025 kg/ha): 20% | Plant damage (herbicidal activity), visually evaluated, Barnyard grass ([14]; 0.05 kg/ha): 50% | Plant damage (herbicidal activity), visually evaluated, Barnyard grass ([14]; 0.1 kg/ha): 70% | Plant damage (herbicidal activity), visually evaluated, Barnyard grass ([14]; 0.4 kg/ha): 100%
